# Key:
# eIF4E mRNA = assay: Inhibitory concentration (IC50) against eIF4E mRNA, real-time PCR, HEK293T; format: cell-based, human
# Experimental: In order to calculate IC50 values for ASO sequences, ASO candidates are transfected at different concentrations (20 nM, 80 nM, 320 nM) into the human cell line HEK293T (human) with the aid of iN-fect™ in vitro transfection reagent (15081, iNtRON, Republic of Korea). Twenty four hours after ASO transfection, the cells were harvested and analyzed for eIF4E mRNA expression reduction by real-time PCR. Relative eIF4E mRNA expression was normalized to the expression level using GAPDH as an internal control and was evaluated using the 2^−ΔΔCq method.
# For comparison of inhibitory concentrations (IC50) among ASO candidates, a dose-response curve was derived by normalized nonlinear regression using Prism8 program (GraphPad Software, USA) (FIG. 16e).
# [1] = system: epilepsy models (mTOR p.C1483Y or mTOR p.L2427P); assay: Seizure monitoring after ICV injection of ASO in FMCD epilepsy models; format: in vivo, mouse; conditions: ICV injection 100-500 μg, day 3 to day 70 after injection
# Experimental: (§1) For this experiment, animal models established using pCIG-mTOR p.C1483Y-IRES-EGFP and pCIG-mTOR p.L2427P-IRES-EGFP of Example 1 were used while animal models established with pCIG-mTOR (WT)-IRES-EGFP […] served as a control. The ASOs were each intracerebroventricularly injected (ICV injection) at a dose of 100-500 μg to the brains of the mice that had been identified to undergo epileptic seizure. From day 3 after ASO injection to up to day 70, 12-hour video were recorded for seizure monitoring 2-3 times a week per mouse.
# eIF4E [2] = assay: eIF4E expression in cerebral cortex, cerebellum and spinal cord after ICV injection of ASO; conditions: mouse, in vivo
# From the text: Each of panels B to D of FIG. 17 and panels E and F of FIG. 18 represents “normal mice”, whereas panel A of FIG. 17 and panels G and H of FIG. 18 represents “FMCD animal models.”
# as §1
# After intraventricular injection of the ASO candidates to the animal models, eIF4E expression was reduced in the cerebral cortex, the cerebellum, and the spinal cord, with the consequent reduction in seizure frequency.
# eIF4E [3] = assay: Immunofluorescence of eIF4E in brain cells after ASO injection; format: in vivo, mouse; conditions: week 4-5 after ICV injection, FMCD models
# Experimental: (§2) Week 4-5 after intracerebroventricular injection of ASO into the animal models established using pCIG-mTOR mutant-IRES-EGFP vector of Example 1, the brain was removed, fixed, sectioned, and immunostained.
# (§3) Immunostaining with antibodies against ADK, CREB1, IRSp53, and eIF4E and Imaging with fluorescence were conducted in the same manner as in Example 2.
# ADK, IRSp53, and CREB1 = assay: Immunofluorescence of ADK, IRSp53 and CREB1 after ASO injection; format: in vivo, mouse; conditions: week 4-5 after ICV injection
# Experimental: as §2, §3
# [4] = system: GFP-labeled mutant cells of FMCD animal models; assay: Neuronal (mutant) cell size after ICV injection of ASO; format: in vivo, mouse; conditions: intractable epilepsy models, week 4-5 after ICV injection
# Experimental: Week 4-5 after intracerebroventricular injection of ASO into the FMCD animal models established using pCIG-mTOR mutant-IRES-EGFP vector of Example 1, the brain was removed, fixed, sectioned, and immunostained. For neuronal cell size (FIG. 22), GFP (green)-labeled mutant cells (ASO control or ASO eIF4E) were measured for size in the obtained mouse brain tissues.
# C57BL/6J mice [5] = conditions: mouse, in vivo
# Experimental: In this regard, ASO was administered by ICV injection. The ASO used in this experiment was ASO #77.
# The 3-Chamber test measures social interaction and preference for social novelty. This apparatus consisted of three chambers with dimensions of 12×20×26 cm for the center chamber and dimensions of 14×20×26 cm for the opposite side chambers. Each of the opposite side chambers included a plastic cage (11 cm in diameter, 2.15 cm in height) for an object or stranger mouse in a corner. This experiment consisted of three sessions of habituation (10 min), exploring object/mouse (10 min), and exploring familiar/new mouse (10 min). In the second session, a WT stranger mouse was randomly placed in a plastic cage while the opposite plastic cage was empty. The mouse was allowed to freely explore the whole apparatus. The time spent in each chamber was measured and then used for the subsequent social interaction test. In the last session, a new WT stranger was placed in the empty plastic cage.
# [6] = system: FMCD and epilepsy animal models (mTOR-p.C1483Y, mTOR-p.L2427P); assay: Marble burying test, FMCD epilepsy models; format: in vivo, mouse; conditions: ASO-eIF4E models compared to ASO-control models
# Experimental: A mouse was placed in the cage.
# Experiments were performed on the FMCD and epilepsy animal models (mTOR-p.C1483Y, mTOR-p.L2427P) of Example 7-1 and the control normal animal models (mTOR-WT). The same sheIF4E as that described in Example 2 was used. Week 2 after sheIF4E injection, the handling was performed in the animals. Week 3 after sheIF4E injection, the animals were subjected to the behavioral tests.
# The epilepsy animal models were subjected to the substantially same behavioral abnormality assay as in Example 6. The results are depicted in FIGS. 28 and 29.
# Briefly, ASO #77 was administered by ICV injection to the FMCD and epilepsy animal models were generated with the pCIG-mTOR mutant-IRES-EGFP of Example 1. ASO #77 was evaluated for therapeutic potential for neuropsychiatric disorder accompanying the FMCD epilepsy animal models in the substantially same manner as in Example 6.
# [7] = system: mutant-expressing cells in the brain tissue; conditions: mouse, in vivo
# [8] = over 8 weeks after ASO injection, 8-week-old mTOR mutation C57BL/6J mice
# C57BL/6J mice [9] = conditions: mouse, in vivo; remark: listed apart in the source
# C57BL/6J mice [10] = conditions: mouse, in vivo; remark: listed apart in the source
# C57BL/6J mice [11] = conditions: male or female mice injected with ASO
substance,measurement,setting,value
"ASO #77: eIF4E-targeting antisense oligonucleotide of SEQ ID NO: 77, 2′-MOE gapmer, all phosphorothioate linkages (antisense GATCCTTCACCAATGTTACA; all phosphorothioate, sugars by position and methylation of C not given here; 2'-MOE gapmer)",IC50,"eIF4E mRNA; HEK293T, 20, 80, 320 nM, 24 h after transfection, read-out: IC50 against eIF4E mRNA expression",53.8 nM
same,eIF4E mRNA expression compared to the mismatch ASO,"eIF4E mRNA; HEK293T, at all of the doses (20 nM, 80 nM, 320 nM)",inhibited
same,seizure frequency,[1],remarkably reduced
same,eIF4E expression in animal models,eIF4E [2],reduce eIF4E expression
same,eIF4E expression in brain cells (immunofluorescence),eIF4E [3],reduction of eIF4E expression
same,"expression of ADK, IRSp53, and CREB1 in the mutation cells","ADK, IRSp53, and CREB1","rescue of the expression of ADK, IRSp53, and CREB1 to a normal level"
same,mutant cell size,[4],therapeutic effects
same,time spent in sniffing zone (index of sociality),C57BL/6J mice [5],not changed
same,number of buried marbles (repetitive behavior),[6],increased
same,delivery into mutant-expressing cells in the brain tissue,[7],effectively delivered
same,body weight,[8],recovered to normal conditions
same,dyskinesia (behavior test),C57BL/6J mice [9],no dyskinesia
same,time spent in center (index of anxiety),C57BL/6J mice [9],not changed
same,time spent in center (residence time within the light box),C57BL/6J mice [10],not changed
same,% sucrose preference,C57BL/6J mice [11],not changed

# Source: patent publication US12570975B2, “Composition for diagnosis or treatment of a condition associated with increased activity of EIF4E comprising an EIF4E inhibitor” (SoVarGen Co., Ltd., priority 2019, dated 2026)
